Results as given in the NIST ThermoML archive (doi:10.1016/j.jct.2011.02.018).

Experiment: xn = mol fraction of the nth substance listed
Conditions: 101 kPa, Liquid; for viscosity: Concentric cylinders viscometry; for mass density: Vibrating tube method

COC(C)(C)C [2-methoxy-2-methylpropane] + CCCCCO
Conditions	mass density, 293.15 K [kg/m3]	mass density, 298.15 K [kg/m3]	mass density, 303.15 K [kg/m3]	mass density, 308.15 K [kg/m3]	viscosity, 293.15 K [mPa·s]	viscosity, 298.15 K [mPa·s]	viscosity, 303.15 K [mPa·s]	viscosity, 308.15 K [mPa·s]
x1 = 0.0105	813.89	810.25	806.55	802.82	3.895	3.372	2.932	2.562
x1 = 0.0197	813.34	809.68	805.95	802.2	3.775	3.273	2.852	2.493
x1 = 0.0321	812.56	808.89	805.15	801.39	3.615	3.143	2.743	2.406
x1 = 0.0401	812.06	808.37	804.63	800.86	3.516	3.059	2.675	2.344
x1 = 0.0506	811.39	807.69	803.93	800.15	3.394	2.958	2.588	2.274
x1 = 0.0595	810.83	807.12	803.35	799.56	3.292	2.872	2.517	2.214
x1 = 0.0699	810.18	806.45	802.67	798.87	3.176	2.778	2.438	2.149
x1 = 0.0811	809.49	805.73	801.94	798.11	3.061	2.683	2.357	2.079
x1 = 0.0901	808.93	805.14	801.33	797.5	2.97	2.606	2.294	2.028
x1 = 0.1042	808.03	804.23	800.41	796.55	2.841	2.495	2.214	1.949
x1 = 0.1506	805.02	801.2	797.3	793.39	2.45	2.168	1.927	1.716
x1 = 0.2078	801.27	797.36	793.4	789.41	2.058	1.837	1.648	1.473
x1 = 0.252	798.32	794.34	790.33	786.28	1.809	1.619	1.457	1.312
x1 = 0.301	795.01	790.96	786.88	782.75	1.574	1.418	1.281	1.159
x1 = 0.3492	791.65	787.57	783.41	779.21	1.387	1.254	1.135	1.033
x1 = 0.3996	788.14	783.99	779.75	775.48	1.207	1.098	1	0.9139
x1 = 0.4577	784	779.75	775.42	771.06	1.042	0.953	0.8735	0.8008
x1 = 0.4985	781.06	776.76	772.36	767.93	0.9442	0.8668	0.7962	0.7313
x1 = 0.5512	777.21	772.8	768.33	763.81	0.8364	0.7702	0.7102	0.6515
x1 = 0.5999	773.61	769.09	764.55	759.95	0.7504	0.6941	0.6401	0.5895
x1 = 0.6506	769.72	765.16	760.51	755.83	0.6719	0.6222	0.5765	0.5309
x1 = 0.6986	766.04	761.39	756.67	751.9	0.606	0.5627	0.5215	0.4812
x1 = 0.7451	762.49	757.72	752.92	748.06	0.5517	0.5167	0.4765	0.4421
x1 = 0.7976	758.12	753.3	748.39	743.42	0.4971	0.4653	0.4332	0.4011
x1 = 0.8534	753.55	748.61	743.59	738.51	0.4455	0.4172	0.3868	0.3584
x1 = 0.898	749.74	744.73	739.63	734.47	0.4101	0.3855	0.3594	0.3315
x1 = 0.9098	748.75	743.7	738.59	733.41	0.4017	0.3772	0.3526	0.3257
x1 = 0.9195	747.92	742.85	737.72	732.53	0.3954	0.3701	0.3467	0.3192
x1 = 0.9289	747.1	742.01	736.85	731.64	0.388	0.3658	0.3396	0.3137
x1 = 0.9419	745.96	740.85	735.67	730.43	0.3807	0.3564	0.3307	0.3102
x1 = 0.9495	745.29	740.17	734.96	729.72	0.3752	0.354	0.3276	0.3054
x1 = 0.9594	744.4	739.28	734.04	728.78	0.3682	0.3458	0.3227	0.3007
x1 = 0.9688	743.56	738.42	733.17	727.88	0.3623	0.3405	0.317	0.2966
x1 = 0.9792	742.63	737.46	732.2	726.89	0.3563	0.3352	0.3104	0.2916
x1 = 0.9902	741.63	736.44	731.16	725.83	0.3533	0.3291	0.3035	0.2863
